Assay results published in patent US20080255213A1, “THIAZOLIDINONE AMIDES, THIAZOLIDINE CARBOXYLIC ACID AMIDES, AND SERINE AMIDES, INCLUDING POLYAMINE CONJUGATES THEREOF, AS SELECTIVE ANTI-CANCER AGENTS” (University of Tennessee Research Foundation, priority 2007, published 2008).
Read-outs that look alike come from different tables or passages of the source.

What was measured:
[1] = system: SK-MEL-188 melanoma cell line; assay: Sulforhodamine B (SRB) cytotoxicity assay, SK-MEL-188; format: cell-based; conditions: Homo sapiens, 48 h exposure, diastereomeric mixtures, value ± standard error, read-out: IC50 ± SEM SK-MEL-188 (converted)
Procedure: (§1) Cytotoxicity of these newly synthesized compounds was examined in two human melanoma cell lines (SK-MEL-188 and WM-164) and in a fibroblast cell line. Activity on fibroblast cells was used as a control to determine the selectivity of these compounds against melanoma. Standard sulforhodamine B (SRB) assay was used. Cells were exposed to a wide range of concentrations for 48 h in round-bottom 96-well plates. Cells were fixed with 10% trichloroacetic acid and washed five times with water. After cells were air-dried overnight and stained with SRB solution, total proteins were measured at 560 nm with a plate reader. IC50 (i.e., concentration which inhibited cell growth by 50% of DMSO-treated controls) values were obtained by nonlinear regression analysis with GraphPad Prism (GraphPad Software, San Diego, Calif.).
(§2) The ability of thiazolidine derivatives to inhibit the growth of two melanoma cancer cell lines and fibroblast cells is summarized in Table 1. […] At this early stage, all compounds were used as a diastereomeric mixture if they contain chiral centers in order to select the most promising compounds for further development.

[2] = system: WM-164 melanoma cell line; assay: Sulforhodamine B (SRB) cytotoxicity assay, WM-164; format: cell-based; conditions: Homo sapiens, WM164, 48 h exposure, diastereomeric mixtures, value ± standard error, read-out: IC50 ± SEM WM-164 (converted)
Procedure: as §1, §2

fibroblast cell line = assay: Sulforhodamine B (SRB) cytotoxicity assay, fibroblast control; format: cell-based; conditions: 48 h exposure, control for selectivity, value ± standard error, read-out: IC50 ± SEM Fibroblast (converted)
Procedure: as §1, §2

melanoma cells = assay: SRB cytotoxicity assay, statements not tied to one cell line; format: cell-based, human; conditions: for potency/activity in words: melanoma cells and fibroblast cells; for IC50: Homo sapiens; for selectivity in words: melanoma versus fibroblast cells
Procedure: as §1, §2

[3] = summary over the cell lines, read-out: IC50 in the in vitro assay (cell line not given)

Compound: CCCCCCCCCCNC(=O)[C@@H]1CSC(c2cc(OC)c(OC)c(OC)c2)N1 (stereo partly drawn) [Compound 302, (4R)—N-decyl-2-(3,4,5-trimethoxyphenyl)thiazolidine-4-carboxamide]
- IC50 [1]: 14.5 µM
- IC50 [2]: 2.1 µM
- IC50 (fibroblast cell line): 6.7 µM
- potency/activity in words (melanoma cells): low potency

Compound: CCCCCCCCCCNC(=O)[C@@H]1CSC(c2ccc(OC)c(OC)c2)N1 (stereo partly drawn) [Compound 306, (4R)—N-decyl-2-(3,4-dimethoxyphenyl)thiazolidine-4-carboxamide]
- IC50 [1]: 11.9 µM
- IC50 [2]: 6.1 µM
- IC50 (fibroblast cell line): 6.3 µM
- potency/activity in words (melanoma cells): low potency

Compound: CCCCCCCCCCNC(=O)[C@@H]1CSC(c2ccc3c(c2)OCO3)N1 (stereo partly drawn) [Compound 310, (4R)-2-(benzo[d][1,3]dioxol-5-yl)-N-decylthiazolidine-4-carboxamide]
- IC50 [1]: 6.6 µM
- IC50 [2]: 4.5 µM
- IC50 (fibroblast cell line): 8.2 µM
- potency/activity in words (melanoma cells): low potency

Compound: CCCCCCCCCCCCCCCCNC(=O)[C@@H]1CSC(c2ccc(NC(C)=O)cc2)N1 (stereo partly drawn) [Compound 317, (4R)-2-(4-acetamidophenyl)-N-hexadecylthiazolidine-4-carboxamide]
- IC50 [1]: 2.1 µM
- IC50 [2]: 0.6 µM
- IC50 (fibroblast cell line): 19.1 µM
- IC50 (melanoma cells; melanoma cells, lowest value stated in text, read-out: IC50 for melanoma cells (as low as)): 0.6 µM

Compound: CCCCCCCCC/C=C/CCCCCCCNC(=O)[C@@H]1CSC(c2ccc(NC(C)=O)cc2)N1 (stereo partly drawn) [Compound 320E, (4R)-2-(4-acetamidophenyl)-N-((E)-octadec-8-enyl)thiazolidine-4-carboxamide]
- IC50 [1]: 3.3 µM
- IC50 [2]: 1.4 µM
- IC50 (fibroblast cell line): 18 µM
- potency/activity in words (melanoma cells): restored potency dramatically

Compound: CCCCCCCCC/C=C\CCCCCCCNC(=O)[C@@H]1CSC(c2ccc(NC(C)=O)cc2)N1 (stereo partly drawn) [Compound 320Z, (4R)-2-(4-acetamidophenyl)-N-((Z)-octadec-8-enyl)thiazolidine-4-carboxamide]
- IC50 [1]: 1.4 µM
- IC50 [2]: 1 µM
- IC50 (fibroblast cell line): 10.6 µM
- potency/activity in words (melanoma cells): restored potency dramatically

Compound: CCCCCCCCCCCCCCNC(=O)[C@@H]1CSC(c2ccccc2)N1 (stereo partly drawn) [Compound 321, (4R)-2-phenyl-N-tetradecylthiazolidine-4-carboxamide]
- IC50 [1]: 1.9 µM
- IC50 [2]: 0.6 µM
- IC50 (fibroblast cell line): 2.8 µM
- selectivity in words (melanoma cells): loss of selectivity

Compound: CCCCCCCCCCCCCCCCNC(=O)[C@@H]1CSC(c2ccccc2)N1 (stereo partly drawn) [Compound 322, (4R)—N-hexadecyl-2-phenylthiazolidine-4-carboxamide]
- IC50 [1]: 1.9 µM
- IC50 [2]: 0.7 µM
- IC50 (fibroblast cell line): 2.2 µM
- selectivity in words (melanoma cells): loss of selectivity

Compound: CON(C)C(=O)[C@@H]1CSC(c2ccccc2)N1 (stereo partly drawn) [Compound 323, (4R)—N-methoxy-N-methyl-2-phenylthiazolidine-4-carboxamide]
- IC50 [1]: > 100 µM
- IC50 [2]: > 100 µM
- IC50 (fibroblast cell line): > 100 µM
- potency/activity in words (melanoma cells): completely abolished potency

Compound: CCCCCCCCCCCCCCNC(=O)[C@H]1CSC(c2cc(OC)c(OC)c(OC)c2)N1 (stereo partly drawn) [Compound 324, (4S)-2-(3,4,5-trimethoxyphenyl)-N-tetradecylthiazolidine-4-carboxamide]
- IC50 [1]: 2.6 ± 0.2 µM
- IC50 [2]: 1.1 ± 0.1 µM
- IC50 (fibroblast cell line): 4.1 ± 0.7 µM

Compound: CCCCCCCCCCCCCCCCNC(=O)[C@H]1CSC(c2ccc(NC(C)=O)cc2)N1 (stereo partly drawn) [Compound 325, (4S)-2-(4-acetamidophenyl)-N-hexadecylthiazolidine-4-carboxamide]
- IC50 [1]: 3.2 µM
- IC50 [2]: 1.4 µM
- IC50 (fibroblast cell line): 22.6 µM

Compound: CCCCCCCCCCCCNC(=O)[C@@H]1CSC(c2ccc(N)cc2)N1 (stereo partly drawn) [Compound 326, (4R)-2-(4-aminophenyl)-N-dodecylthiazolidine-4-carboxamide]
- IC50 [1]: 2.2 µM
- IC50 [2]: 1.4 µM
- IC50 (fibroblast cell line): 4.1 µM

Compound: CCCCCCCCCCCCCCCCNC(=O)[C@@H]1CSC(c2ccc(N)cc2)N1 (stereo partly drawn) [Compound 327, (4R)-2-(4-aminophenyl)-N-hexadecylthiazolidine-4-carboxamide]
- IC50 [1]: 2.3 µM
- IC50 [2]: 1.4 µM
- IC50 (fibroblast cell line): 7.4 µM

Compound: CCCCCCCCCCCCCCNC(=O)[C@@H]1CSC(c2ccccc2)=N1 [Compound 328, (R)-4,5-dihydro-2-phenyl-N-tetradecylthiazole-4-carboxamide]
- IC50 [1]: 42.1 ± 5 µM
- IC50 [2]: > 50 µM
- IC50 (fibroblast cell line): > 50 µM
- IC50 (melanoma cells; [3]): > 20 µM

Compound: CCCCCCCCCCCCCCNC(=O)[C@@H]1CSC(c2ccc(OC)c(OC)c2)=N1 [Compound 329, (R)-4,5-dihydro-2-(3,4-dimethoxyphenyl)-N-tetradecylthiazole-4-carboxamide]
- IC50 [1]: 19.1 µM
- IC50 [2]: 42.9 µM
- IC50 (fibroblast cell line): > 50 µM
- IC50 (melanoma cells; [3]): > 20 µM

Compound: CCCCCCCCCCCCCCCCNC(=O)[C@@H]1CSC(c2ccccc2NC(C)=O)N1C (stereo partly drawn) [Compound 330, (4R)-2-(2-acetamidophenyl)-N-hexadecyl-3-methylthiazolidine-4-carboxamide]
- IC50 [1]: 29.1 ± 1 µM
- IC50 [2]: > 100 µM
- IC50 (fibroblast cell line): > 100 µM
- IC50 (melanoma cells; [3]): > 20 µM

Compound: CN(C)/N=N/c1[nH]cnc1C(N)=O [DTIC, dacarbazine, reference compound]
- IC50 [1]: > 100 µM
- IC50 [2]: > 100 µM
- IC50 (melanoma cells; [3]): > 100 µM

Compound: CNC(=O)c1cc(Oc2ccc(NC(=O)Nc3ccc(Cl)c(C(F)(F)F)c3)cc2)ccn1 [Sorafenib, reference compound]
- IC50 [1]: 4.3 ± 0.2 µM
- IC50 [2]: 4.7 ± 0.3 µM
- IC50 (fibroblast cell line): > 100 µM
- selectivity: ratio of IC50 values for fibroblast cells over melanoma cells (melanoma cells; fibroblast IC50 / melanoma IC50): > 25
- potency against melanoma cells relative to compound 317 (times less potent) (melanoma cells; versus compound 317): about 10 times
